According to US10137138B1, “Sulfonylurea derivatives of oleanolic acid” (KING SAUD UNIVERSITY, priority 2018, dated 2018):

Columns and labels:
[1] = test system: alloxan-induced diabetic mouse model; experiment: Acute evaluation of in vivo oral hypoglycemic activity; conditions: diabetic mice, single oral dose 200 μg/kg body weight, mean ± SEM, n=6
Method: The sulfonylurea derivatives of oleanolic acid were screened for their oral hypoglycemic activity in vivo using the alloxan-induced diabetic mouse model. In an acute evaluation, the percentage change in blood glucose levels in diabetic mice after oral administration of the test compounds (200 μg/kg body weight) was measured and summarized in Table 1 and FIG. 2.
Briefly, animals were fasted overnight and the fasting blood glucose (BG) (0 hour) levels were calculated. Test and control compounds were administered at a fixed dose of 200 μg/kg body weight orally (homogenized suspension in 0.5% carboxymethyl cellulose (CMC) and permissible amounts of Tween 80). Animals in the vehicle-treated group were given an equal volume of 0.5% CMC and control group animals were untreated. Blood samples were removed from all animals at 2, 4, 6 and 24 hours and the percentage change in BG was calculated. The data were analyzed by one-way ANOVA followed by Dunnett's test. The results were expressed as mean±standard error of mean for each group, n=6 for each group, and p<0.01 or p<0.05 was considered as statistically significant.

[2] = test system: alloxan-induced diabetic mouse model; experiment: Sub-acute evaluation of in vivo oral hypoglycemic activity (21 days dosing, 7 days rest); conditions: diabetic mice, mean ± SEM, n=6; for % change in BG, 7 days rest period: day 28: 7 days rest after 21 days oral 200 μg/kg body weight; for % change in BG, 7 day / % change in BG, 14 day / % change in BG, 21 day: oral 200 μg/kg body weight daily; for % change in BG, 7 day: day 7; for % change in BG, 14 day: day 14; for % change in BG, 21 day: day 21
Method: The sulfonylurea derivative compounds were also screened for their oral hypoglycemic activity after several days of administration using the alloxan-induced diabetic mouse model, and percentage changes in blood glucose levels after oral administration ([…] body weight) were recorded (Table 2).
Briefly, animals were fasted overnight, and the fasting BG (0 day) levels were calculated. Test and control compounds were administered orally for 21 days at a fixed time and a fixed dose of 200 μg/kg body weight (homogenized suspension in 0.5% CMC and permissible amounts of Tween 80). After 21 days, treatment was stopped and animals were rested for a period of 7 days. Animals in the vehicle-treated group were then given an equal amount of 0.5% CMC and those of control group were untreated. Blood samples were removed from all animals throughout the course of the study at 7, 14, 21 and 28 days, and percentage change in BG was calculated. The data were analyzed by one-way ANOVA, followed by Dunnett's test. The results were expressed as mean±standard error of mean for each group, n=6 for each group, and p<0.01 or p<0.05 was considered as statistically significant (Table 2).

## CC1(C)CC[C@]2(C(=O)NCCc3ccc(S(=O)(=O)NC(=O)NC4CCCCC4)cc3)CC[C@]3(C)C(=CC[C@@H]4[C@@]5(C)CCC(=O)C(C)(C)[C@@H]5CC[C@]43C)[C@@H]2C1 [Compound 3a, N1-[p-(4-Oxo-18β-olean-12-ene-28-amido-ethyl)-benzenesulfonyl]-N2-cyclohexyl-urea]
[1]
  % change in BG, 2 h: −72.76 ± 0.78%
  % change in BG, 4 h: −77.76 ± 0.90%
  % change in BG, 6 h: −83.56 ± 0.83%
  % change in BG, 24 h: −74.44 ± 0.74%
[2]
  % change in BG, 7 days rest period: −81.78 ± 0.90%
  % change in BG, 7 day: −76.87 ± 0.89%
  % change in BG, 14 day: −80.09 ± 0.90%
  % change in BG, 21 day: −87.65 ± 0.95%

## CC1CCC(NC(=O)NS(=O)(=O)c2ccc(CCNC(=O)C34CCC(C)(C)CC3C3=CCC5C6(C)CCC(=O)C(C)(C)C6CCC5(C)C3(C)CC4)cc2)CC1 (stereo not drawn) [Compound 3b, N1-[4-(3-Oxo-18β-olean-12-ene-28-amido-ethyl)-benzenesulfonyl]-N2-(4-methylcyclohexyl)-urea]
[1]
  % change in BG, 2 h: −75.56 ± 0.86%
  % change in BG, 4 h: −80.97 ± 0.92%
  % change in BG, 6 h: −88.89 ± 0.98%
  % change in BG, 24 h: −76.76 ± 0.89%
[2]
  % change in BG, 7 days rest period: −82.12 ± 1.17%
  % change in BG, 7 day: −80.80 ± 0.80%
  % change in BG, 14 day: −84.98 ± 1.16%
  % change in BG, 21 day: −88.89 ± 1.12%

## COc1ccc(Cl)cc1C(=O)NCCc1ccc(S(=O)(=O)NC(=O)NC2CCCCC2)cc1 [Glibenclamide, glibenclamide]
[1]
  % change in BG, 2 h: −35.55 ± 1.55%
  % change in BG, 4 h: −26.54 ± 1.32%
  % change in BG, 6 h: −15.58 ± 0.88%
  % change in BG, 24 h: −11.24 ± 0.11%
[2]
  % change in BG, 7 days rest period: −28.48 ± 0.58%
  % change in BG, 7 day: −16.23 ± 0.32%
  % change in BG, 14 day: −22.57 ± 0.54%
  % change in BG, 21 day: −30.87 ± 0.58%

## CC1(C)CC[C@]2(C(=O)O)CC[C@]3(C)C(=CC[C@@H]4[C@@]5(C)CC[C@H](O)C(C)(C)[C@@H]5CC[C@]43C)[C@@H]2C1 [Oleanolic acid, oleanolic acid]
[1]
  % change in BG, 2 h: −40.79 ± 1.20%
  % change in BG, 4 h: −48.66 ± 1.31%
  % change in BG, 6 h: −52.17 ± 1.31%
  % change in BG, 24 h: −51.01 ± 1.11%
[2]
  % change in BG, 7 days rest period: −30.32 ± 0.83%
  % change in BG, 7 day: −10.56 ± 0.80%
  % change in BG, 14 day: −20.35 ± 0.72%
  % change in BG, 21 day: −37.68 ± 0.78%
